Here are results for 22 compounds from patent US4710498A, “Pyridyloxy derivatives” (Ikeda Mohando Co., Ltd., priority 1984, dated 1987).

One assay addresses T1, Histamine H2 -Receptor (Cavia porcellus, UniProt P47747).
T1 construct: from tissue; host or cells: isolated right atrium of male Hartley guinea pig
As to the kind of experiment: biochemical. Also on record: species or system male Hartley guinea pig. The following applies: for Kb: negative logarithm of molar concentration, isolated guinea pig atrium, read-out: Antagonistic Action against Histamine H2 -Receptor (pA2) Determined by Using Atrium isolated from Guinea Pig (converted). The protocol: A male Hartley guinea pig having a body weight of about 400 g was killed by cervical dislocation, and the atrium thereof was isolated and was suspended in an organ bath containing […] of a modified Ringer solution and subjected to a tension of 1 g. The number of heart beats under such condition was recorded using a polygraph.
Initially, from 1×10^-7 mol to 3×10^-4 mol of histamine was allowed to act accumulatively to depict the curve of the dosage-reaction relationship. Likewise, the curve of the dosage of histamine-reaction relationship was depicted in the presence of 5×10^-7 mol to 1×10^-6 mol of the test sample which was injected 3 minutes before. The negative logarithm (pA2) of the molar concentration of the test sample required for moving the curve obtained by single administration of histamine parallel to the right side by a two-times concentration was calculated.

Assay [1] deals with Gastric Acid Secretion Induced by Histamine. Nature of the assay: Inhibition effect on gastric acid secretion induced by histamine in pylorus ligated rat (subcutaneous). It is filed as in vivo, male Wistar rat. The protocol: (§1) A male Wistar rat having a body weight of about 160 g and which had not fed for 24 hours was anesthetized by an intraperitoneal dose of 1.2 g/kg of urethane. After ligating of pylorus and esophagus, the gaster anterior was incised and fitting with a double polyethylene cannula. The wall of the stomach was rinsed with 5 ml of saline at 30 minutes intervals, and the quantity of gastric acid contained in each rinsing solution was measured by titration.
The basal acid secretion was initially measured three times, and then 0.2 mg/kg of each of the compounds of this invention was administered subcutaneously and 3 mg/kg of histamine was administered subcutaneously after the lapse of an additional 30 minutes.
(§2) The quantity of gastric acid secreted after the operation was measured continuously for 3 hours. Within that measurement interval, three time points at which the increase in acid secretion reached a maximum level were selected, and the average quantity of gastric acid secreted at those time points was taken as the increase in acid secretion, which was compared with the increase in acid secretion of the control group to calculate the percent inhibition for secretion of gastric acid (Table 1). [formula] (The result was shown as the average value of five runs.)

The test system is the same in assay [2]. As to the kind of experiment: Inhibitory effect of intraduodenally administered compounds on gastric acid secretion induced by histamine in rat. It is filed as in vivo, male Wistar rat. Conditions: for ED50: Rattus norvegicus; for Efficacy Ratio relative to Cimetidine (Cimetidine = 1): rat, in vivo. The protocol:
The test was conducted by an improved method based on that reported by Watanabe et al., in "Pharmacometrics", Vol. 3, No. (1), pages 7 to 14 (1969).
as §1, §2

Setting [3] is: Rattus norvegicus, 0.2 mg/kg SC, histamine 3 mg/kg SC, average of five runs, read-out: Secretion of Gastric Acid in Rat, Inhibition Rate (%).
Setting [4] is: intraduodenal, 30 minutes before histamine SC, first series (Table 2-1), read-out: Median effective dose (ED50) inhibiting Gastric Acid Section (95% Reliability Limit).

Read-outs that look alike come from different tables or passages of the source.

T1 sequence (P47747 whole entry): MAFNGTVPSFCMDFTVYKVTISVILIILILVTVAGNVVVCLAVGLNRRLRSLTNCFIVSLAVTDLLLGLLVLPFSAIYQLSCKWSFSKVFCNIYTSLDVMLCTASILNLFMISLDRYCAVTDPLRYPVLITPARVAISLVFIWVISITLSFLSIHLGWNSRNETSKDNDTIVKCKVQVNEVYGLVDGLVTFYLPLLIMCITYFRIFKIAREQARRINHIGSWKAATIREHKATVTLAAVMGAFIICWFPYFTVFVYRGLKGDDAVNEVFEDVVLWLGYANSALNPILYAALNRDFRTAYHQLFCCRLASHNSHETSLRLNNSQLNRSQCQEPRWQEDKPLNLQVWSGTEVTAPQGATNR

Regarding `Nc1cc(NC/C=C\COc2cc(CN3CCCCC3)ccn2)[nH]c(=O)n1` [Ex. 26, 4-amino-6-[4-<4-(1-piperidinomethyl)pyridyl-2-oxy>-cis-2-butenylamino]-1H-pyrimidin-2-one], the Kb at Histamine H2 -Receptor is 263 nM. Besides, in assay [1] (setting [3]), the inhibition in vivo at 0.2 mg/kg was determined as 83%.
Take `Nc1cc(NC/C=C\COc2cccc(CN3CCCCC3)n2)[nH]c(=O)n1` [Ex. 47, 4-amino-6-[4-<6-(1-piperidinomethyl)pyridyl-2-oxy>-cis-2-butenylamino]-1H-pyrimidin-2-one]: the inhibition in vivo at 0.2 mg/kg in assay [1] (setting [3]) is 40%.
Regarding `CNc1n[s+]([O-])nc1NC/C=C\COc1cc(CN2CCCCC2)ccn1` (stereo not drawn) [Ex. 8, 3-methylamino-4-[4-<4-(1-piperidinomethyl)pyridyl-2-oxy>-cis-2-butenylamino]-1,2,5-thiadiazole-1-oxide], the Kb on Histamine H2 -Receptor is 490 nM. The inhibition in vivo at 0.2 mg/kg in assay [1] (setting [3]) amounted to 85%.
On the same counts, the results for `CN(C)Cc1c[nH]c(NC/C=C\COc2cc(CN3CCCCC3)ccn2)nc1=O` [Ex. 21, 5-dimethylaminomethyl-2-[4-<4-(1-piperidinomethyl)pyridyl-2-oxy>-cis-2-butenylamino]-1H-pyrimidin-4-one] are 316 nM and 65%.
`CN(C)Cc1cccc(Cc2c[nH]c(NC/C=C\COc3cc(CN4CCCCC4)ccn3)nc2=O)c1` [Ex. 23, 5-(3-dimethylaminomethylbenzyl)-2-[4-<4-(1-piperidinomethyl)pyridyl-2-oxy>-cis-2-butenylamino]-1H-pyrimidin-4-one]: the Kb at Histamine H2 -Receptor is 1550 nM. Besides, the inhibition in vivo at 0.2 mg/kg in assay [1] (setting [3]) was determined as 36%.
Taken in the same sequence, the figures for `Nc1n[s+]([O-])nc1NC/C=C\COc1cccc(CN2CCCCC2)n1` (stereo not drawn) [Ex. 34, 3-amino-4-[4-<6-(1-piperidinomethyl)pyridyl-2-oxy>-cis-2-butenylamino]-1,2,5-thiadiazole-1-oxide] were 933 nM and 81%.
Consider `CN/C(=N/CCSCc1nc[nH]c1C)NC#N` [Cimetidine, reference compound], for which the median effective dose (ED50) in assay [2] (read-out: Median effective dose (ED50) inhibiting Gastric Acid Section (95% Reliability Limit), intraduodenal, 30 minutes before histamine SC, first series (Table 2-1)) came out at 7 mg/kg; in assay [2] (read-out: Median effective dose (ED50) inhibiting Gastric Acid Section (95% Reliability Limit), intraduodenal, 30 minutes before histamine SC, second series (Table 2-2)), 8.2 mg/kg. Further, the inhibition in vivo at 2 mg/kg in assay [1] (Rattus norvegicus, sc, read-out: Secretion of Gastric Acid in Rat, Inhibition Rate (%)) worked out at 72%.
As for `Nc1n[nH]c(=O)nc1NC/C=C\COc1cccc(CN2CCCCC2)n1` [Ex. 49, 6-amino-5-[4-<6-(1-piperidinomethyl)pyridyl-2-oxy<-cis-2-butenylamino]-1,2,4-triazin-3-one], the Kb at Histamine H2 -Receptor is 1700 nM. In assay [1] (setting [3]), the inhibition in vivo at 0.2 mg/kg is 45%.
Regarding `Nc1nnc(NC/C=C\COc2cc(CN3CCCCC3)ccn2)s1` [Ex. 17, 2-amino-5-[4-<4-(1-piperidinomethyl)pyridyl-2-oxy>-cis-2-butenylamino]-1,3,4-thiadiazole], the Kb at Histamine H2 -Receptor is 204 nM. Moreover, in assay [2] (setting [4]), the 50% effective dose (ED50) turned out to be 0.14 mg/kg. In addition, the “Efficacy Ratio relative to Cimetidine (Cimetidine = 1)” value (“Efficacy Ratio relative to Cimetidine” for short) in assay [2] is on record as 50.0. The inhibition in vivo at 0.2 mg/kg in assay [1] (setting [3]) came out at 69%.
On the same counts, the results for `NC1=NS(=O)(=O)N=C1NC/C=C\COc1cc(CN2CCCCC2)ccn1` [Ex. 13, 3-amino-4-[4-<4-(1-piperidinomethyl)pyridyl-2-oxy>-cis-2-butenylamino]-1,2,5-thiadiazole-1,1-dioxide] are 708 nM, 0.5 mg/kg, 14.0 and 84%.
Consider `Nc1n[nH]c(=O)nc1NC/C=C/COc1cc(CN2CCCCC2)ccn1` [compound 30, 6-amino-5-[4-<4-(1-piperidinomethyl)pyridyl-2-oxy>trans-2-butenylamino]-1,2,4-triazin-3-one], for which the median effective dose (ED50) in assay [2] (setting [4]) turned out to be 0.26 mg/kg. In assay [2], the “Efficacy Ratio relative to Cimetidine” value was 26.9.
Taken in the same sequence, the figures for `CNc1c(NC/C=C\COc2cc(CN(C)C)ccn2)c(=O)c1=O` [Ex. 4, 1-methylamino-2-<4-(4-dimethylaminomethylpyridyl-2-oxy)-cis-2-butenylamino>-1-cyclobuten-3,4-dione] were 0.11 mg/kg and 63.6.
In the case of `Nc1nnc(NC/C=C\COc2cccc(CN3CCCCC3)n2)s1` [Ex. 39, 2-amino-5-[4-<6-(1-piperidinomethyl)pyridyl-2-oxy>-cis-2-butenylamino]-1,3,4-thiadiazole], the Kb on Histamine H2 -Receptor is 1550 nM. Besides, in assay [1] (setting [3]), the inhibition in vivo at 0.2 mg/kg was determined as 36%.
For `Nc1nsnc1NC/C=C\COc1cc(CN2CCCCC2)ccn1` [Ex. 15, 3-amino-4-[4-<4-(1-piperidinomethyl)pyridyl-2-oxy>-cis-2-butenylamino]-1,2,5-thiadiazole], the “antagonistic actions against Histamine H2 -receptor (in words)” value at Histamine H2 -Receptor (isolated right atria of guinea pigs) is listed as “strong”. Moreover, the Kb on Histamine H2 -Receptor is 35.5 nM. Further, the 50% effective dose (ED50) in assay [2] (setting [4]) turned out to be 0.38 mg/kg. Besides, the “Efficacy Ratio relative to Cimetidine” value in assay [2] is recorded as 18.4. Also, the inhibition in vivo at 0.2 mg/kg in assay [1] (setting [3]) worked out at 61%.
Regarding `CNc1n[s+]([O-])nc1NC/C=C/COc1cc(CN2CCCCC2)ccn1` (stereo not drawn) [Ex. 10, 3-methylamino-4-[4-<4-(1-piperidinomethyl)pyridyl-2-oxy>-trans-2-butenylamino]-1,2,5-thiadiazole-1-oxide], the Kb at Histamine H2 -Receptor was 182 nM. For the same compound, the inhibition in vivo at 0.2 mg/kg in assay [1] (setting [3]) was 52%.
As to “5-dimethylaminomethylbenzyl-2-[4-<6-(1-pipelidinomethyl)pyridyl-2-oxy>-cis-2-butenylamino]-1H-pyrimidin-4-one [Ex. 45]”, the “Secretion of Gastric Acid in Rat, Inhibition Rate (%)” value in assay [1] (0.2 mg/kg SC, histamine 3 mg/kg SC, average of five runs) was 36%.
In the case of `CN(C)Cc1ccnc(OC/C=C\CNc2nc(=O)[nH]nc2N)c1` [compound 31, 6-amino-5-<4-(4-dimethylaminomethylpyridyl-2-oxy)-cis-2-butenylamino>-1,2,4-triazin-3-one], in assay [2] (setting [4]), the 50% effective dose (ED50) came out at 0.28 mg/kg. In assay [2], the “Efficacy Ratio relative to Cimetidine” value worked out at 25.0.
Consider `CN(C)Cc1ccnc(OC/C=C\CNc2c(N)c(=O)c2=O)c1` [Ex. 3, 1-amino-2-<4-(4-dimethylaminomethylpyridyl-2-oxy)-cis-2-butenylamino>-1-cyclobuten-3,4-dione], for which the Kb at Histamine H2 -Receptor is 468 nM. Besides, the inhibition in vivo at 0.2 mg/kg in assay [1] (setting [3]) amounted to 52%.
Turning to `CN(C)Cc1c[nH]c(NC/C=C\COc2cccc(CN3CCCCC3)n2)nc1=O` [Ex. 43, 5-dimethylaminomethyl-2-[4-<6-(1-piperidinomethyl)pyridyl-2-oxy>-cis-2-butenylamino]-1H-pyrimidin-4-one], the Kb at Histamine H2 -Receptor is 617 nM. In assay [1] (setting [3]), the inhibition in vivo at 0.2 mg/kg came to 44%.
In the case of `Cn1nc(N)nc1NC/C=C\COc1cccc(CN2CCCCC2)n1` [Ex. 41, 3-amino-1-methyl-5-[4-<6-(1-piperidinomethyl)pyridyl-2-oxy>-cis-2-butenylamino]-1H-1,2,4-triazole], on Histamine H2 -Receptor, the Kb is 1910 nM. The inhibition in vivo at 0.2 mg/kg in assay [1] (setting [3]) turned out to be 32%.
Taken in the same sequence, the figures for `CNc1n[s+]([O-])nc1NC/C=C\COc1cccc(CN2CCCCC2)n1` (stereo not drawn) [Ex. 35, 3-methylamino-4-[4-<6-(1-piperidinomethyl)pyridyl-2-oxy>-cis-2-butenylamino]-1,2,5-thiadiazole-1-oxide] were 1100 nM and 74%.
Turning to `CNc1c(NC/C=C\COc2cccc(CN3CCCCC3)n2)c(=O)c1=O` [Ex. 33, 1-methylamino-2-[4-<6-(1-piperidinomethyl)pyridyl-2-oxy>-cis-2-butenylamino]-1-cyclobuten-3,4-dione], the Kb on Histamine H2 -Receptor was 661 nM. Also, the inhibition in vivo at 0.2 mg/kg in assay [1] (setting [3]) was 34%.
